These results are taken from PMC7530726, “A structure-based computational workflow to predict liability and binding modes of small molecules to hERG” (Scientific Reports, 2020).

Structures are written as SMILES. Values joined by “and” are separate entries in the source; they are usually repeats but may differ in a detail not shown here. Identical values can stand only once. Like-named read-outs stand apart in the source and are kept apart here.

One data set concerns hERG. The note with it: cited from earlier work.
The target of data set [1] is T1, hERG Y652A (Homo sapiens, UniProt Q12809, Y652A). The note with it: 1 µM.
For data set [2], the target named is T2, hERG WT (Homo sapiens, UniProt Q12809). The data set is described as follows: in vitro. The note with it: Percent current inhibition hERG WT. On the technique in general: The hERG channel carries a current that helps repolarise heart muscle cells.
Data set [3] deals with T3, hERG F656A (Homo sapiens, UniProt Q12809, F656A). The conditions noted are these: 1 µM.
The target of data set [4] is T1, hERG Y652A. The experiment in a line: Whole-cell patch clamp (automated), HEK cells stably expressing hERGY652A. On the technique in general: In patch-clamp work, channel activity is measured electrically.
Data set [5] addresses T1, hERG Y652A. The data set is described as follows: in vitro. The conditions noted are these: pH 7.4, Percent current inhibition hERG Y652A.
Data set [6] has as its target T2, hERG WT.
Another data set addresses T4, WT hERG (Homo sapiens, UniProt Q12809).
T4 construct: purchased Life Technologies
The data set is described as follows: Predictor hERG Fluorescence Polarization Assay kit. Type of data set: binding. The procedure: All measurements were made according to the manufacturer’s instruction. Fluorescence polarization was measured using PerkinElmer EnVision® Multilabel reader (PerkinElmer, Woodbridge, ON, Canada).

The target of data set [7] is T3, hERG F656A. The experiment in a line: in vitro.
Data set [8] addresses T2, hERG WT. The note with it: 1 µM.
Data set [9] concerns serotonin 5-hydroxytryptamine receptor 4 (5HT-4). The conditions noted are these: cited from earlier work.
The target in data set [10] is T3, hERG F656A. The data set is described as follows: Whole-cell patch clamp (manual, 135 mM K+), HEK cells stably expressing hERGF656A.
Setting [11] is: read-out: hERG IC50 from literature, Patch clamp HEK293 cells @ 34 ± 1 °C, ref Wu et al.
The mark [12] stands for this setting: read-out: hERG IC50 from literature, Patch clamp HEK293 cells @ 23 ± 1 °C, ref Toga et al.
The mark [13] stands for this setting: pH 7.4, Percent current inhibition hERG F656A.
[14] abbreviates: pH 7.4, reduction in the inhibition of F656A mutant when compared to the WT.

T3 sequence (Q12809 whole entry F656A): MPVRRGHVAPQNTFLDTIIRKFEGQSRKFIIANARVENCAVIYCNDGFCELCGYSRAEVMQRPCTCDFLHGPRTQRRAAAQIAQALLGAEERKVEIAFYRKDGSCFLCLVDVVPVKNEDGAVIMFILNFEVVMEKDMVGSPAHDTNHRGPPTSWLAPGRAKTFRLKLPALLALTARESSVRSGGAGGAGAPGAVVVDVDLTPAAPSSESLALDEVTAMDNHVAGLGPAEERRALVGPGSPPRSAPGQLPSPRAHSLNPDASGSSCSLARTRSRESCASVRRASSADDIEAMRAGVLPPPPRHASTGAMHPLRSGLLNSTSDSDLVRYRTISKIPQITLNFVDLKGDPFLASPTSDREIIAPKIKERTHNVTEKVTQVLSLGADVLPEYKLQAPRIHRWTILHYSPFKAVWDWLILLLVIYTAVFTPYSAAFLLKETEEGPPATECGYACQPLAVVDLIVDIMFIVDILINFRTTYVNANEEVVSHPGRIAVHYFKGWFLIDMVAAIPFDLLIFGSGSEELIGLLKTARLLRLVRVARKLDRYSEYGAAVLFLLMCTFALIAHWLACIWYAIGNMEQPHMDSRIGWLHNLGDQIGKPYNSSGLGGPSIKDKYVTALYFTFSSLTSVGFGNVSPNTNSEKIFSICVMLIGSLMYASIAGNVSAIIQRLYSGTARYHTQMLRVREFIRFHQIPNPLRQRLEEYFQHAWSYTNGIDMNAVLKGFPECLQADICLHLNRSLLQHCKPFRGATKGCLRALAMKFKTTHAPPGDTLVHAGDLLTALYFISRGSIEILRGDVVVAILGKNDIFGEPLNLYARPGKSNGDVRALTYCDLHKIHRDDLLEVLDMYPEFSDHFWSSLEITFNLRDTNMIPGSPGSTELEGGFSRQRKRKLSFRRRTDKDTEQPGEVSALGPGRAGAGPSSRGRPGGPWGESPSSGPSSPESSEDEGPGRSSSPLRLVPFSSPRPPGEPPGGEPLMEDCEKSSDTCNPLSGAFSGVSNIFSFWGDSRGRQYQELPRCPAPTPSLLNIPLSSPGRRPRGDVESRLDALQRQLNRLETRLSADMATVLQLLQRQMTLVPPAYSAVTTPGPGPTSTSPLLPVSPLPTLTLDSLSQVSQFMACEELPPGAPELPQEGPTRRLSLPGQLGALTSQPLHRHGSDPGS
T2 sequence (Q12809 whole entry): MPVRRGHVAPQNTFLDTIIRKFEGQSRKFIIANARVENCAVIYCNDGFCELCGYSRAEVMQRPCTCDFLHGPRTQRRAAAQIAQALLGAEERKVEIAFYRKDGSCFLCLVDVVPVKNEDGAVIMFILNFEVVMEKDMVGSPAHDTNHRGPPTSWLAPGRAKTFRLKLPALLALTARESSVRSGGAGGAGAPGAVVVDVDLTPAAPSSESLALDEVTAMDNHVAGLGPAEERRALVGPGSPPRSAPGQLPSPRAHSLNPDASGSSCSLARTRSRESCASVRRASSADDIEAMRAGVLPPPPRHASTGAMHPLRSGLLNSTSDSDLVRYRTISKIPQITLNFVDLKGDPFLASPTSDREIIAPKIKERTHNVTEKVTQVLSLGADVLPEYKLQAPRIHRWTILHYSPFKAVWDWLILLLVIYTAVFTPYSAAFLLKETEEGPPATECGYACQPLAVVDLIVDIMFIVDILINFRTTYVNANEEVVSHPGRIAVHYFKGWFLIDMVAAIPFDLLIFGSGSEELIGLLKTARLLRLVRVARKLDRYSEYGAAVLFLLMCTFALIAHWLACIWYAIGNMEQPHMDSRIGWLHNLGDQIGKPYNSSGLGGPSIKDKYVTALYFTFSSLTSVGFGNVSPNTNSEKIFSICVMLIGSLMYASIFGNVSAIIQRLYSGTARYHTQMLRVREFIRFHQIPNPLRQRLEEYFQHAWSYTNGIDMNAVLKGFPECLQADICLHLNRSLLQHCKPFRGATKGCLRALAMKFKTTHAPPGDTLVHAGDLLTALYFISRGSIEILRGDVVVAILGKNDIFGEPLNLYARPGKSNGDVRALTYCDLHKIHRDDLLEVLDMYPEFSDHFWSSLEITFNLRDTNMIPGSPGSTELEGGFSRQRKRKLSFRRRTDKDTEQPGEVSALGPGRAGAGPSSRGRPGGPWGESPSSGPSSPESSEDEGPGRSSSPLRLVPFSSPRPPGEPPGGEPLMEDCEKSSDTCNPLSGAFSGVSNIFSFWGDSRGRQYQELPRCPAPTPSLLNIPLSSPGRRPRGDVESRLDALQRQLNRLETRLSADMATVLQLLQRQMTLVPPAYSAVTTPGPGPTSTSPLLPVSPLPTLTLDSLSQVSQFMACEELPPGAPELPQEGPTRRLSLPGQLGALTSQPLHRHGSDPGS
T1 sequence (Q12809 whole entry Y652A): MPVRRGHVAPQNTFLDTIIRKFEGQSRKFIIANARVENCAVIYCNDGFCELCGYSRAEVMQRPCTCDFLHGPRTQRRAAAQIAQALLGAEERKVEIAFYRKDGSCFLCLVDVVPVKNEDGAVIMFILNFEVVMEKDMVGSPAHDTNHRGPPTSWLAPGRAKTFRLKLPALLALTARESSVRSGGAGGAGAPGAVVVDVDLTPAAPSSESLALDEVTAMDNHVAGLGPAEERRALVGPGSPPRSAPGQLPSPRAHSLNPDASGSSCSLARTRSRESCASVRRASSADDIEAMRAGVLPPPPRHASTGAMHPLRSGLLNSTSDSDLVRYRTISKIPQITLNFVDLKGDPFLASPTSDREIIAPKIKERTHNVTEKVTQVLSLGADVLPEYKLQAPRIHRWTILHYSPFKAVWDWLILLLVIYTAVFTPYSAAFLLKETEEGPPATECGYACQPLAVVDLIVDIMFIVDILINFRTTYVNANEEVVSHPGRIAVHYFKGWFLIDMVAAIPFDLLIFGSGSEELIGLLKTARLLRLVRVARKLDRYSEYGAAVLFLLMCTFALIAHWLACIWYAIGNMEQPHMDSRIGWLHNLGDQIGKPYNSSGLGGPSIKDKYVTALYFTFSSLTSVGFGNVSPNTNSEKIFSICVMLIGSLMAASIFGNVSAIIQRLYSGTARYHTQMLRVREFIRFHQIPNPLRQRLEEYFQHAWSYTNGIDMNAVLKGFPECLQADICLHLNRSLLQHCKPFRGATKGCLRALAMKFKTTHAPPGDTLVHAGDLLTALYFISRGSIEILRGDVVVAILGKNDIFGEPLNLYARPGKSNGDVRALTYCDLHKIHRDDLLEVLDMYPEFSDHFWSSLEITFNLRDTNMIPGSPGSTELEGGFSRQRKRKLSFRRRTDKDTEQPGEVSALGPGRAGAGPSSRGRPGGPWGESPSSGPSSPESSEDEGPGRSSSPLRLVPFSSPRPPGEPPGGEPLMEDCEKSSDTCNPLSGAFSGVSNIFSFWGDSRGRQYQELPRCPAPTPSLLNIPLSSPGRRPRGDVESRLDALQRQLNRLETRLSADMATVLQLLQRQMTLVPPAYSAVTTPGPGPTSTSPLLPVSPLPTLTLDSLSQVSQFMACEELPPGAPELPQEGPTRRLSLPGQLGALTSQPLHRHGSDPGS
T4 sequence (Q12809 whole entry): as the sequence (Q12809 whole entry) above

Consider `Cc1cccc(C)c1NC(=O)CC12CCCN1CCC2` [Pilsicainide], for which the IC50 with hERG (read-out: hERG IC50) was < 30 µM and ~20 µM; in the data set with hERG (setting [11]) it was 20.4 µM.
By inhibition is commonly meant how much of the control response was suppressed. A lower inhibition goes with a weak effect. For `CCOc1cc(N)c(Cl)cc1C(=O)NCC1CN(Cc2ccc(F)cc2)CCO1` (centres unmarked) [Mosapride], the IC50 in the data set with hERG (setting [12]) was 4.8 µM. Moreover, the “Percent current inhibition hERG Y652A” value on hERG Y652A [1] is “very small percentage”. Besides, at hERG WT [2], testing at 1 µM gave an inhibition of 13.1%, at 3 µM the inhibition was 33.5%, the inhibition at 5 µM amounted to 45% and 10 µM produced 68.7% inhibition. On hERG WT [2], this molecule showed an inhibition at 30 µM of 92.5%. For the same molecule, the “Percent current inhibition hERG F656A” value on hERG F656A [3] is listed as “very small percentage”. The IC50 against hERG Y652A [4] is 17.4 µM. In addition, at hERG Y652A [5], the inhibition at 1 µM was 7.13%, testing at 3 µM gave an inhibition of 13.6%, the inhibition at 5 µM turned out to be 20.6% and the inhibition at 10 µM came to 31.3 ± 3.65%. Besides, the inhibition at 30 µM against hERG Y652A [5] is 66.8%. On hERG WT [6], this molecule had an IC50 of 5.36 µM. In addition, at WT hERG, the “affinity to WT hERG in FP assay” value was “much weaker affinity”. On hERG F656A [7] (setting [13]), this molecule returned an inhibition at 1 µM of 11%, an inhibition at 3 µM of 12.4%, an inhibition at 5 µM of 16% and an inhibition at 10 µM of 25.7%. At hERG F656A [7] (setting [13]), this molecule displayed an inhibition at 30 µM of 34.4% and an inhibition at 100 µM of 40.2%. This molecule also had an inhibition at 1 µM against hERG F656A [7] (setting [14]) of 2%. The “Percent current inhibition hERG WT” value at hERG WT [8] was “very small percentage”.
`COc1cc(N)c(Cl)cc1C(=O)NC1CCN(CCCOc2ccc(F)cc2)CC1OC` (centres unmarked) [Cisapride]: in the data set on hERG (read-out: hERG1 channel inhibition affinity), the IC50 was […]. Further, in the data set on hERG (setting [12]), the IC50 is […]. Further, the “binding affinity to 5HT-4 (agonist)” value in [9] is ~ 14 nM. At hERG Y652A [5], this molecule came in with an inhibition at 3 µM of 39.1%, an inhibition at 5 µM of 57.7% and an inhibition at 10 µM of 91.7%. Further, on hERG F656A [7] (setting [13]), 3 µM produced 38.7% inhibition, 5 µM produced 59.6% inhibition and 10 µM produced 75.5% inhibition. Further, the inhibition at 1 µM against hERG F656A [7] (setting [14]) was around 80%.
Regarding `COc1ccccc1OCC(O)CN1CCN(CC(=O)Nc2c(C)cccc2C)CC1` (centres unmarked) [Ranolazine], the IC50 in the data set with hERG (read-out: hERG IC50 from literature, Patch clamp HEK293 cells @ 37 ± 1 °C, ref Du et al.) is […]. For the same molecule, at hERG Y652A [4] (100 µM), the “Percent current inhibition hERG Y652A” value is 24.62% ± 2.64. The inhibition at 10 µM against hERG Y652A [4] (human, HEK cells stably expressing hERG Y652A, pH 7.4, Percent current inhibition hERG Y652A, 10 µM) was determined as 2.4%; at hERG WT [6] (human, HEK cells stably expressing hERG WT, Percent current inhibition hERG WT, 10 µM), 42.3%; against hERG F656A [10] (human, HEK cells stably expressing hERG F656A, pH 7.4, Percent current inhibition hERG F656A, 10 µM), 4.39%. Besides, the inhibition at 30 µM worked out at 10.1% against hERG Y652A [4] (human, HEK cells stably expressing hERG Y652A, pH 7.4, Percent current inhibition hERG Y652A, 30 µM); 77% on hERG WT [6] (human, HEK cells stably expressing hERG WT, Percent current inhibition hERG WT, 30 µM); 10.9% against hERG F656A [10] (human, HEK cells stably expressing hERG F656A, pH 7.4, Percent current inhibition hERG F656A, 30 µM). Moreover, the inhibition at 100 µM against hERG Y652A [4] (human, HEK cells stably expressing hERG Y652A, pH 7.4, Percent current inhibition hERG Y652A, 100 µM) is 25%; at hERG WT [6] (human, HEK cells stably expressing hERG WT, Percent current inhibition hERG WT, 100 µM) it was around 90%. Further, the inhibition at 300 µM at hERG Y652A [4] (human, HEK cells stably expressing hERG Y652A, pH 7.4, Percent current inhibition hERG Y652A, 300 µM) was found to be 64%; on hERG WT [6] (human, HEK cells stably expressing hERG WT, Percent current inhibition hERG WT, 300 µM), 100%; at hERG F656A [10] (human, HEK cells stably expressing hERG F656A, pH 7.4, Percent current inhibition hERG F656A, 300 µM) it was 37.7%. The inhibition at 500 µM on hERG Y652A [4] (human, HEK cells stably expressing hERG Y652A, pH 7.4, Percent current inhibition hERG Y652A, 500 µM) is 84.6%; at hERG WT [6] (human, HEK cells stably expressing hERG WT, Percent current inhibition hERG WT, 500 µM), 100%; at hERG F656A [10] (human, HEK cells stably expressing hERG F656A, pH 7.4, Percent current inhibition hERG F656A, 500 µM), 49.6%. Moreover, on hERG WT [6] (100 µM), the “Percent current inhibition hERG WT” value is 97.36% ± 0.89. Besides, the “Percent current inhibition hERG F656A” value at hERG F656A [10] (100 µM) is reported as 21.37% ± 7.80.
For `Cc1cccc(C)c1NC(=O)C1CCCCN1C` (centres unmarked) [Mepivacaine], the IC50 in the data set on hERG (read-out: hERG IC50) is > 100 µM and 156 µM; with hERG (setting [11]) it was 156 µM.
